Results on six molecules are retold here after publication PMC3437492 (British Journal of Pharmacology, 2012).

In data set [1] the target is T1, choline/ethanolamine phosphotransferase (CEPT) (Plasmodium falciparum, UniProt C6KTB9).
T1 sequence (C6KTB9 1-391): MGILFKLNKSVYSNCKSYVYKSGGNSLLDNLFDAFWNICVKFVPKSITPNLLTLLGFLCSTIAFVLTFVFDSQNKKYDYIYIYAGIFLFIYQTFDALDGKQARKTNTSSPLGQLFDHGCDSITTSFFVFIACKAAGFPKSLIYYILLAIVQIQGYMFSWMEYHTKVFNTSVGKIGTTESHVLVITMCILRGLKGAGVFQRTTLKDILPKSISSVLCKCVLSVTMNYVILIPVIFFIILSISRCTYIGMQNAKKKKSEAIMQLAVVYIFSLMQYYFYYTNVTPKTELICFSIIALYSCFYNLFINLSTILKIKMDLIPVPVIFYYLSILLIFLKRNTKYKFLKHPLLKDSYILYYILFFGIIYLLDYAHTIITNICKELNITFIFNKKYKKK

The test system of data set [2] is parasite choline transporter (poly-specific cation transporter). The experiment in a line: Choline entry into isolated. In kind it is cell-based, P. falciparum.
The subject of data set [3] is erythrocyte choline carrier. Put plainly: Carrier-mediated choline entry into IRBC in the presence of 150 µM furosemide. Format: cell-based, human.
In data set [4] the test system is furosemide-sensitive NPP of P. falciparum IRBC. The experiment in a line: Albitiazolium entry into P. falciparum-infected erythrocytes. In kind it is cell-based.
The target of data set [5] is T1, choline/ethanolamine phosphotransferase (CEPT). Put plainly: biochemical. As to conditions: 0.5 h, read-out: Concentration for complete inhibition.
The subject of a further data set is normal erythrocytes. The experiment in a line: Albitiazolium entry into normal erythrocytes. As to conditions: 30 µM albitiazolium, 8 min, 37°C. Format: cell-based, human.
For data set [6], the target named is T2, choline kinase (CK) (Plasmodium falciparum, UniProt Q8IM71).
T2 sequence (Q8IM71 1-440): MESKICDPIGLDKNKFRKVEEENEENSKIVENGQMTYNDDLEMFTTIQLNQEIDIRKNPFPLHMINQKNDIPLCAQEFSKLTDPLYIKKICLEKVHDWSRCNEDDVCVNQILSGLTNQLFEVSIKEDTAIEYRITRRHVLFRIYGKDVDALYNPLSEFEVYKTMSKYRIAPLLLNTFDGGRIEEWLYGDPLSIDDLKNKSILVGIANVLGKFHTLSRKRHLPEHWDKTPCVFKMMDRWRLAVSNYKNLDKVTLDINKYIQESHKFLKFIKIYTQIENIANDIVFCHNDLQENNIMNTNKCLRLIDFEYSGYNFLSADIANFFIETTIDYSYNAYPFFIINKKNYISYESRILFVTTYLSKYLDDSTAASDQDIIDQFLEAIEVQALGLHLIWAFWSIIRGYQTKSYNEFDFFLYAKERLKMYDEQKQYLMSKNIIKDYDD

The test system of another data set is P. falciparum-IRBC. As to conditions: ref Wein et al., cited from earlier work.
The test system of data set [7] is NA biosynthesis in P. falciparum-infected erythrocytes. The experiment in a line: Effect on [3H]-hypoxanthine incorporation into nucleic acids. As to conditions: for IC50: Plasmodium falciparum, Erythrocyte. In kind it is cell-based.
In a further data set the test system is human plasma-proteins. As to conditions: at 20 ng·mL^−1; no saturation until 5000 ng·mL^−1; ref unpublished observations; cited from earlier work.
In data set [8] the test system is P. falciparum-infected erythrocytes. The experiment in a line: Total choline entry into P. falciparum-infected erythrocytes. Format: cell-based. As to conditions: no furosemide.
The target in data set [9] is T2, choline kinase (CK). The experiment in a line: biochemical.
Data set [10] relates to P. falciparum asexual blood stages. As to conditions: ref Vial et al., 2004; cited from earlier work.
Data set [11] concerns PE biosynthesis in P. falciparum-infected erythrocytes. The experiment in a line: Effect on [3H]-ethanolamine incorporation into PL. Format: cell-based. As to conditions: for IC50: read-out: PE50.
For another data set, the system named is P. falciparum 3D7 strain. In kind it is cell-based.
Data set [12] deals with CTP:phosphocholine cytidylyltransferase (CCT) (Plasmodium falciparum, UniProt Q8IEE9). Put plainly: CCT assay. In kind it is biochemical.
Sequence of CTP:phosphocholine cytidylyltransferase (CCT) (Q8IEE9 1-896): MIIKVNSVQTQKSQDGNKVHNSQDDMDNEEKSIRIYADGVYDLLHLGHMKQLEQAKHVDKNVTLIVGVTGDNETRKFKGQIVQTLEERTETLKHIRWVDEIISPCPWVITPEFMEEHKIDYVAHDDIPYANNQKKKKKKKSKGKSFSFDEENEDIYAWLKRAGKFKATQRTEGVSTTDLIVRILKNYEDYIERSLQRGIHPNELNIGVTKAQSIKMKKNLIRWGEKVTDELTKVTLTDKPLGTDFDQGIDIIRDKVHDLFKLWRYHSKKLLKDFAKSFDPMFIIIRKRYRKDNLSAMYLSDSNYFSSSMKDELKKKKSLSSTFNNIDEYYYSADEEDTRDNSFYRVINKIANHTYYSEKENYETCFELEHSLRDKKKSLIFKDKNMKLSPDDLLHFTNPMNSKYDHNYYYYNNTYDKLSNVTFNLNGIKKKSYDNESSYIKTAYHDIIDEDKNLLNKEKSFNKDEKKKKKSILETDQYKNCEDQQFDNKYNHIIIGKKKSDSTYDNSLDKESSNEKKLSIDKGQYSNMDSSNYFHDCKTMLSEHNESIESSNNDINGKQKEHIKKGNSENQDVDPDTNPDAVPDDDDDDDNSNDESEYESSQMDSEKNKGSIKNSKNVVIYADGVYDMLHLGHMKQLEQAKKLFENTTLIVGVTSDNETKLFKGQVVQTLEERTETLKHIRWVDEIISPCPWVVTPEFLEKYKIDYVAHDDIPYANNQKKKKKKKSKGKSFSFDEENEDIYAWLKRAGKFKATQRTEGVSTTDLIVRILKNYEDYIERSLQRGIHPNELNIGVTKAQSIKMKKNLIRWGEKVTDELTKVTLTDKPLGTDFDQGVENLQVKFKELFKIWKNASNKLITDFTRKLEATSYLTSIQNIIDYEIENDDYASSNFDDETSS
For data set [13], the system named is parasite poly-specific cation carrier. As to conditions: for Type of inhibition: inhibition of albitiazolium entry.
Data set [14] has as its system erythrocyte choline carrier. As to conditions: normal erythrocytes, 37°C.
Substrate in data set [15]: C[N+](C)(C)CCO
The experiment in a line: cells, lysate or membranes named. As to conditions: other: CK; saturating ATP; pH 7.9.

Where “and” joins values, the source holds several entries; their conditions need not be identical. Identical values can stand only once. Like-named read-outs stand apart in the source and are kept apart here.

What is called Ki is a measure of affinity in units of concentration, obtained from inhibition or displacement. Broadly, the Km is the concentration of substrate that gives half-maximal velocity.

As for `C[N+](C)(C)CCOP(=O)(O)OP(=O)([O-])OC[C@H]1O[C@@H](n2ccc(N)nc2=O)[C@H](O)[C@@H]1O` [CDP–choline], the Vmax in [1] is 17.0 ± 1.5 pmol per 10^7 IRBC·min^−1.
Turning to `Cc1c(CCO)sc[n+]1CCCCCCCCCCCC[n+]1csc(CCO)c1C.[Br-].[Br-]` [albitiazolium, 3,3′-(dodecane-1,12-diyl)bis[5-(2-hydroxyethyl)-4-methyl-1,3-thiazol-3-ium] dibromide], the “Concentration for complete inhibition of choline entry” value was 10 µM in data set [2] (15 µM choline); 12 µM in data set [3] (15 µM choline, 150 µM furosemide); above 36 µM in data set [8] (15 µM choline, not reached). In addition, the figures for the Type of inhibition result in data set [2] (inhibition of choline entry) and in data set [3] (150 µM furosemide) were “Competitive” and “competitive inhibition”, respectively. The IC50 in data set [2] (read-out: IC50 on choline entry into parasites, 15 µM choline, 10 min) was 2.3 ± 0.2 µM; in [7] (3 h, read-out: NA50, ring stage, [3H]-hypoxanthine, 3 h) it was 240 µM; in [7] (3 h, read-out: NA50, schizont stage, [3H]-hypoxanthine, 3 h) it was 160 µM; in data set [7] (3 h, read-out: NA50, trophozoite stage, [3H]-hypoxanthine, 3 h), 340 µM; in [7] (read-out: NA50, range over the three stages), 160 to 340 µM; on choline kinase (CK) [9] it was 1500 µM. Besides, the IC50 was above 1000 µM in data set [11] (Plasmodium falciparum, Erythrocyte, 3 h); above 1000 µM in data set [11] (Plasmodium falciparum, Erythrocyte); above 1000 µM in data set [11] (schizont stage, 2 µM [3H]-ethanolamine, 3 h); above 1000 µM in [11] (trophozoite stage, 2 µM [3H]-ethanolamine, 3 h). Also, the Ki was 0.53 µM in data set [2] (read-out: Ki on choline entry into parasites, Lineweaver–Burk) and 3.1 µM in [3] (read-out: Ki on choline entry, 150 µM furosemide, Lineweaver–Burk). In addition, the “Vmax of albitiazolium entry” value in [4] (8 min, 37°C) was 47.9 ± 4.9 pmol per 10^7 IRBC·min^−1; in [13] (free parasites (Table 2)) it was 6.1 ± 1.1 pmol per 10^7 cells·min^−1; in data set [13] (isolated parasites, 10 min, 37°C), 6.1 ± 1.1 pmol per 10^7 parasites·min^−1. For the same molecule, in [4] (read-out: apparent Km of albitiazolium entry, 8 min, 37°C), the Michaelis constant (Km) came to 20.6 ± 4.3 µM. Moreover, the IC100 was determined as 100000 µM in data set [5] and 100000 µM in data set [12] (0.5 h, read-out: Concentration for complete inhibition). The Albitiazolium entry rate entry in the data set on normal erythrocytes was “lower than 0.01 pmol per 10^7 RBC·min^−1”. For the same molecule, the “Concentration for complete inhibition” value at choline kinase (CK) [6] was found to be 100 mM. In addition, the “Accumulation in P. falciparum-IRBC” value with P. falciparum-IRBC (external concentration of 100 nM, unpublished observations) is reported as 400 fold. Further, the “cellular accumulation ratio (CAR)” value in the data set with P. falciparum-IRBC (infected erythrocytes at mature stages, in preparation) is recorded as around 400. In [7] (higher than the PC50, three stages), the “Concentrations affecting NA biosynthesis relative to PC50 values” is on record as 13- to 80 fold. Further, the “Binding to human plasma-proteins” value in the data set on human plasma-proteins is 33%. Also, the “Concentration from which choline entry is significantly inhibited” value in data set [8] (15 µM choline) came to 4 µM. For the same molecule, in data set [10], the “Concentration effective at treating malaria in vitro” value is given as around 10 nM. The “Effect on ethanolamine incorporation” value in [11] (up to 10 µM) is on record as “no significant effect”. Further, the “Type of interaction with choline” value with P. falciparum 3D7 strain (combination with choline) is reported as “highly antagonized”. Besides, in the data set with P. falciparum 3D7 strain (combination with ethanolamine), the “Type of interaction with ethanolamine” value was “additive effect”. Further, in the data set on P. falciparum 3D7 strain (combination with serine), the “Type of interaction with serine” value was “additive effect”. Further, the “Decrease of antimalarial activity” value in the data set with P. falciparum 3D7 strain (in the presence of 6 mM choline) stood at 28 fold.
As for `C[N+](C)(C)CCO` [choline], in [2] (Table 3), the “Vmax of parasite choline entry” value is 23.3 ± 4.5 pmol per 10^7 IRBC·min^−1. Besides, the “Vmax of choline entry” value was 23.3 ± 4.5 pmol per 10^7 cells·min^−1 in [2] (free parasites (Table 2)); 0.69 ± 0.23 pmol per 10^7 IRBC·min^−1 and 0.7 ± 0.2 pmol per 10^7 IRBC·min^−1 in data set [3] (IRBC with 150 µM furosemide); 0.43 ± 0.05 pmol per 10^7 RBC·min^−1 in data set [14]. The Km in data set [2] (read-out: Km of choline entry, saponin-freed parasites, 10 min, 37°C) was 18.5 ± 3.3 µM; in data set [3] (read-out: Km of choline entry, IRBC with 150 µM furosemide), 11 ± 2.4 µM; in data set [14] (read-out: Km of choline entry, n= 4) it was 12.2 ± 2.2 µM. Further, the Vmax on choline kinase (CK) [6] came to 63.3 ± 11.6 pmol per 10^7 IRBC·min^−1. In [8] (external concentration of 80 µM choline), this molecule yielded a Choline uptake rate of 1.5 pmol per 10^7 IRBC·min^−1. Moreover, the Type of inhibition result was “competitive inhibition” in [13] and “Competitive” in [13] (listed as Choline). The Ki in [13] (read-out: Ki on albitiazolium entry into parasites, Lineweaver–Burk) was determined as 321 µM.
`N=C(N)c1ccc(OCCCCCOc2ccc(C(=N)N)cc2)cc1` [pentamidine, reference compound]: the “Effect on NA and PC synthesis” value in data set [7] (same conditions as albitiazolium, data not shown) was “affected primarily NA synthesis and not PC synthesis”.
Consider `C[N+](C)(C)CCOP(=O)(O)O` [phosphocholine], for which the Vmax in [12] (CCT) is on record as 5.2 ± 1.4 pmol per 10^7 IRBC·min^−1. Further, in data set [12] (read-out: Km for choline-containing substrate, CCT, saturating CTP), the Km is 511 ± 24.8 µM.

B1: choline kinase (CK) (Plasmodium falciparum 3D7) (protein)
chain: T2 sequence (Q8IM71 1-440)
Take B1: the Km in data set [15] was found to be 31.2 ± 4.1 µM.
